Data set [1] has as its system human embryonic stem cell derived neural stem cells (NSCs). Description: Neural Stem Cell Proliferation Assay (neurogenesis assay, ATP levels by CellTiterGlo). The data set is classed as cell-based. To be noted: 96 h, compound concentration at which 150% activity of control (100%) is reached, NSC proliferation by ATP level after 4 days incubation, dose response 8 μM to 8 nM. The method, boiled down: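 Human ESC-derived NSCs (dual SMAD inhibition) seeded 4 h before compounds, 11-point 2-fold series 8 μM–8 nM; 4 days at 37 °C, 5% CO2. ATP by CellTiterGlo luminescence as cell-number proxy, response as % of media control (0.25% DMSO); EC150 = concentration giving 150% of control.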
On the technique in general: In ATP-based viability assays light output follows the ATP content of the culture.

Usually melting point stands for the temperature, or range, at which the solid turns liquid. `Cc1c2n(c3c(-c4cccnc4)cc(C#N)cc13)CCCNC2=O` [Example 298, 11-Methyl-1-oxo-7-pyridin-3-yl-2,3,4,5-tetrahydro-[1,4]diazepino[1,2-a]indole-9-carbonitrile]: the melting point worked out at 260 °C. In data set [1], this compound registered an EC (150% of control) of 1 µM.

Values taken from patent US9284321B2, “Piperazino[1,2-a]indol-1-ones and [1,4]diazepino[1,2-a]indol-1-one” (Hoffmann-La Roche Inc., priority 2012, dated 2016).
